Read-outs that look alike come from different tables or passages of the source. Some results are limits rather than exact numbers.

A word on the IC50: it is the concentration that gives 50% inhibition. A low value points to greater potency.

The test system of one data set is HepG2. In kind it is cell-based, human.
In another data set the test system is A549. In kind it is cell-based, human.
The next data set deals with HeLa. Format: cell-based, human.
For data set [1], the system named is HCT116. Format: cell-based, human.
Data set [2] has as its system HepG2, A549, HeLa, HCT116. The conditions noted are these: four cell lines, in words.
A further data set concerns HCT116 cells. Nature of the data set: ROS production, DCFH-DA probe. The conditions noted are these: 5-100 nM vs vehicle control. In kind it is cell-based, human. The text has this: Under the influence of pro-apoptotic signals, the elevation of reactive oxygen species (ROS) may serve as a secondary messenger to upregulate the expression of pro-apoptotic proteins, thereby inducing cellular apoptosis.

Another data set deals with Top1 (Homo sapiens, UniProt P11387). Format: biochemical.
Top1, sequence (P11387 whole entry, species assumed): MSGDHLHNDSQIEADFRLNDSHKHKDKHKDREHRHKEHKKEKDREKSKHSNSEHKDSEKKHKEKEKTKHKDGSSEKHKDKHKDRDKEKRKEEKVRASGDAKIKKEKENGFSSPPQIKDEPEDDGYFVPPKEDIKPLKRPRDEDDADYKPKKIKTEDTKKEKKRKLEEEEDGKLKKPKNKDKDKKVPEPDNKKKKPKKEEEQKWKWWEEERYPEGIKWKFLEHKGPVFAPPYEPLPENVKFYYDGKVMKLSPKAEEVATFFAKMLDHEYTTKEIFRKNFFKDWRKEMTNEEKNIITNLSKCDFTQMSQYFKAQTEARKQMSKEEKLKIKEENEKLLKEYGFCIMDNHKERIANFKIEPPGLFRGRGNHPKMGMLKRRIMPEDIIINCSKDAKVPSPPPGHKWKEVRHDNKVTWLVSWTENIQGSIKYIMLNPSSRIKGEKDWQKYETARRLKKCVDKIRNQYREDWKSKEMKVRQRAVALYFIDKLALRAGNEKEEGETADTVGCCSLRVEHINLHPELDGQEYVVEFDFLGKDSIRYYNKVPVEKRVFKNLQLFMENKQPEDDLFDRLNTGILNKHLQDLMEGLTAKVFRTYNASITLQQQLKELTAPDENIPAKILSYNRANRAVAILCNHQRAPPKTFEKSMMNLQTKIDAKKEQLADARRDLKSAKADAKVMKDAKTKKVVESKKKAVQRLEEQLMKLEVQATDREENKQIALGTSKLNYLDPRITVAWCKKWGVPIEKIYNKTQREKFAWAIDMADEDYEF
The target in a further data set is DDX5-blocked Top1 (Homo sapiens, UniProt P17844). In kind it is biochemical. Conditions: 0.05 μM; DDX5 100 nM; Top1 1 IU. As to the method: Experimental condition: Top1 was used for 1 IU; DDX5 was used in 100 nM; and 1 μg supercoiled pRB322 DNA was used.
DDX5-blocked Top1, sequence (P17844 whole entry): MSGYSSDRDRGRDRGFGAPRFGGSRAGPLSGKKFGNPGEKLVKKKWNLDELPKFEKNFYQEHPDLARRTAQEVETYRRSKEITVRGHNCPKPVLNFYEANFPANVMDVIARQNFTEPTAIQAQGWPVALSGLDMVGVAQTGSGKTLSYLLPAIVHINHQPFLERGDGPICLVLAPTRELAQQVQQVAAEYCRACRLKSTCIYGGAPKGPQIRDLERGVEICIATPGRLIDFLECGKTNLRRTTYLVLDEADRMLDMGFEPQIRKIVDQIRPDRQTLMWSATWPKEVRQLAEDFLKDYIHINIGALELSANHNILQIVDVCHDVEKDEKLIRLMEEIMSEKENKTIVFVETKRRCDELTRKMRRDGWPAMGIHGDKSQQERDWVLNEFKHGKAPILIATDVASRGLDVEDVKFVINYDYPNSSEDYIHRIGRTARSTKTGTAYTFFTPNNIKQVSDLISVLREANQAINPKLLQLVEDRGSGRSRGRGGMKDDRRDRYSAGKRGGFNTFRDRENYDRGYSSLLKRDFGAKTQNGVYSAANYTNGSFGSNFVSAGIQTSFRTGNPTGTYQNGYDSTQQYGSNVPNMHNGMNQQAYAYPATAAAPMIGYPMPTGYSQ
Data set [3] has as its system HCT116. Briefly: MTT assay HCT116. In kind it is cell-based, human. As to the method: (§1) MTT assays. […] Each experiment was performed at least in triplicate.
A further data set relates to T24. Nature of the data set: MTT assay T24. Format: cell-based. Conditions: Table 5 lower part; T24 bladder cancer. As to the method:
(§2) MTT assays. […] Viable cells (2500 cells per well) were plated in each well in 96-well plates. After an overnight incubation, cells were treated with and without relevant drugs alone and in combination, respectively, at various concentrations and incubated for 72 hours. MTT, a colorimetric substrate, was added to a final concentration of 0.4 mg/ml to each well. Cells in 96-well plates were further incubated in a 5% CO2 incubator at 37° C. for 4 hours, and then the medium was aspirated. The MTT metabolic product formazan was solubilized by adding 200 ul of DMSO to each well. Absorbance in the relevant wells was measured at 570 nm using an Ultra Microplate Reader (Bio-Tek Instruments). Each experiment was performed at least in triplicate. IC50/EC50 values were calculated from a series of drug dose ranges for each analyzed compound, using GraphPad Prism 6 (GraphPad Software, Inc., La Jolla, CA).
(§3) The inhibition of cell growth and viability in various cancer cell types were tested using MTT assay for references.
(In general: Tetrazolium dyes change colour on reduction, which living cells bring about.)

In a further data set the test system is RT4. Nature of the data set: MTT assay RT4. In kind it is cell-based. Conditions: Table 5 lower part; RT4 bladder cancer. As to the method: as §2, §3
The test system of a further data set is H1376. As to the method: as §2, §3
The subject of the next data set is UMUC-3. As to the method: as §2, §3
For the next data set, the system named is UOK151. As to the method:
as §2, §3

In the next data set the test system is UOK262. As to the method: as §2, §3
Another data set deals with HT-3. Nature of the data set: MTT assay HT-3. Conditions: Table 7; HT-3. Format: cell-based, human. The essentials: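 Growth inhibition is measured by MTT reduction after 72 h treatment with single agents or combinations. Cells are plated at 2500 per well the day before dosing, and MTT (0.4 mg/ml final) is added for 4 h before DMSO solubilization and reading at 570 nm.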

A further data set deals with Y79. Briefly: MTT assay Y79. Format: cell-based. The conditions noted are these: Table 7. As to the method: as §1
In the next data set the test system is Wer 127. Nature of the data set: MTT assay Wer 127. Format: cell-based. Conditions: Table 7. As to the method:
as §1

As for `CC[C@@]1(O)C(=O)OCc2c1cc1n(c2=O)Cc2c-1nc1cc3c(cc1c2-c1ccc(F)cc1)OCO3` [Compound 7b], the IC50 in the data set with HepG2 was 46.3 ± 5.4 nM; in the data set with A549, 19.8 ± 2.9 nM; in the data set with HeLa it was 11.1 ± 6.7 nM; in the data set on HCT116 [1] it was 32.7 ± 3.3 nM. The “cytotoxic / anti-proliferation ability” value in data set [2] is listed as “good anti-proliferation ability in all four cell lines”.
In the case of `CC[C@@]1(O)C(=O)OCc2c1cc1n(c2=O)Cc2c-1nc1cc3c(cc1c2-c1ccc(F)c(OC)c1)OCO3` [Compound 7h], the ROS production entry with HCT116 cells was “significantly increased”.
Regarding `CCc1c2c(nc3ccc(O)cc13)-c1cc3c(c(=O)n1C2)COC(=O)[C@]3(O)CC` [SN38, reference compound], the IC50 turned out to be 268.4 ± 0.6 nM in the data set with HepG2 (Table 13, MTT, HepG2 liver cancer); 475 ± 9 nM in the data set on A549 (Table 13, MTT, A549 lung cancer); 234 ± 5.2 nM with HeLa (Table 13, MTT, HeLa cervical cancer); 366.9 ± 3.3 nM in the data set with HCT116 [1] (Table 13, MTT, HCT116 colorectal cancer). Further, the “concentrations blocking Top1 nicking SC DNA activity” value on Top1 was “could only be blocked by 5 and 50 μM”. The “unblocking of DDX5-blocked Top1 activity” value on DDX5-blocked Top1 was “cannot”. In addition, the IC50/EC50 is 619.8 nM with HCT116 [3] (Table 7); 619.8 nM in the data set with HCT116 [3] (Table 8); 2.32 nM in the data set on T24; 17.6 nM with RT4; above 500 nM in the data set with H1376 (Table 5 lower part, H1376 bladder cancer); above 500 nM in the data set on H1376 (Table 8, H1376). Besides, the IC50/EC50 in the data set with UMUC-3 (Table 5 lower part, UMUC-3 bladder cancer) was 8.2 nM; in the data set with UMUC-3 (Table 8, UMUC-3), 8.2 nM; in the data set on UOK151 (Table 5 lower part, UOK151 kidney cancer), above 500 nM; with UOK151 (Table 8, UOK151), above 500 nM; with UOK151 (Table 10, UOK151) it was above 500 nM; in the data set on UOK262 (Table 5 lower part, UOK262 kidney cancer) it was 33.8 nM. Also, the IC50/EC50 in the data set with UOK262 (Table 8, UOK262) was 33.8 nM; with UOK262 (Table 10, UOK262), 33.8 nM; with HT-3, 18 nM; in the data set on Y79, 5.25 nM; with Wer 127, 6.85 nM.

Source of the values: US20250092058A1 (priority 2018, published 2025).
